Measurements taken from patent US20170246129A1, “COMPOSITION USING GUANIDINE COMPOUND FOR SUPPRESSING TRANSFORMING GROWTH FACTOR (TGF)-beta” (Peking University Third Hospital, priority 2016, published 2017).
Where a name gives a salt, the structure may show the parent alone. Read-outs that look alike come from different tables or passages of the source. Each block holds one compound with its values, some of them ahead of it.

Columns and labels:
[1] = test system: TGFβ1 induced phosphorylated Smad3 (p-Smad3); assay: Western blotting of TGFβ1 induced phosphorylated Smad3 in 3T3 cells; type: cell-based, mouse; details: compound 1 mmol/L premixed with TGF-β1 (5 ng/mL) for 2 h, 3T3 cells treated 30 min, FIG. 9
Protocol: 2: Moroxydinehydrochloride (dissovled in ddH2O, 1 mmol/L); 3: Phenylbiguanide (dissolved in DMSO, 1 mmoL/L); 4: 1-(2,3-Dichlorophenyl) biguanide hydrochloride (dissolved in DMSO, 1 mmoL/L); 5: 1,3-Di(o-tolyl)guanidine (dissolved in DMSO, 1mmoL/L); 6: Buformin hydrochloride (dissolved in EtOH, 1 mmol/L). These compounds and TGF-β1 (5 ng/mL) were premixed for 2 h separately and then 3T3 cells were treated with the mixture for 30 min prior to sample collection. […] Bicinchoninic acid reagents were used to measure the protein concentration. Equal amounts of proteins were separated by SDS-PAGE and transferred to polyvinylidene difluoride membranes. The blots were immunoreacted with primary antibodies and secondary antibodies conjugated with horseradish peroxidase. […] GAPDH antibodies were purchased from Santa Cruz Biotechnology (Santa Cruz, Calif., USA). Protein bands were visualized by enhanced chemiluminescence detection and the intensity was quantified by use of Image-J software.

TβRII-GFP on HeLa cells = assay: Single-molecule fluorescence imaging (TIRFM) of TGF-β1-induced TβRII dimerization; type: cell-based; details: TGF-β1 10 ng/mL, 15 min at 37° C., FIG. 2D
Protocol: In the previous study, individual green fluorescent protein (GFP)-tagged TβRII molecules were imaged on the cell membrane by total internal reflection fluorescence microscopy (TIRFM) to study the receptor activation.
Single molecule fluorescence imaging was performed with objective-type total internal reflection fluorescence microscopy (TIRFM) using an inverted Olympus IX71 microscope equipped with a total internal reflective fluorescence illuminator'a, 100X/1.45NA Plan Apochromat TIR objective and an intensified CCD (ICCD) camera (Pentamax EEV 512×512 FT, Roper Scientific). Hela cells were transfected with TβRII-GFP plasmid for 4 h, washed, and then imaged in the serum-free and phenol red-free MEM under the fluorescence microscopy. GFP was excited at 488-nm by an argon laser (Melles Griot, Carlsbad, Calif.). Movies of 200-300 frames were acquired for each sample at a frame rate of 10 Hz. […] To analyze single-molecule fluorescence intensity and the photobleaching steps, regions of interest for bleaching analysis were selected as followed. Firstly, the background fluorescence was subtracted from the movie acquired from the fixed cells using rolling ball method in Image J software (National Institutes of Health). […] Finally, time courses and the integrated fluorescence intensity of regions which were selected according to the method above were extracted for photobleaching analysis. […]

[2] = target: T1, [125I]-TGFβ1 binding to its receptor in 3T3 mouse fibroblasts (Homo sapiens, UniProt P01137); assay: [125I]-TGFβ1 binding assay; details: printed as log[IC50], 50 pM [125I]-TGFβ1, 4 h at 4° C., four independent experiments, read-out: log[IC50] of [125I]-TGFβ1 binding inhibition (converted)
T1 construct: endogenous in cells; host or cells: 3T3 mouse fibroblasts
T1 sequence (P01137 279-390 limits assumed): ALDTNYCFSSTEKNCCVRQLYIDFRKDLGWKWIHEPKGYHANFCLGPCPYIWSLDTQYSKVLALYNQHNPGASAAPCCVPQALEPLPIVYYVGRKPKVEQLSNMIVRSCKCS
Protocol: 3T3 mouse fibroblasts were seeded in a 24 well-plate and cultured in DMEM supplemented with 10% FBS and antibiotics (100 U/mL penicillin-streptomycin). […] After 4 h at 4° C., the medium was removed and cells were washed five times with ice-cold binding buffer (50 mM HEPES, 128 mM NaCl, 5 mM KCl, 5 mM MgSO4, and 1.2 mM CaCl2). The cells were then solubilized using binding buffer containing 1% Triton X-100 and the radioactivity was measured. Non-specific binding was determined in the presence of an excess (10 nM) of unlabeled TGFβ1.

TGF-β1 = TGF-β1 (Homo sapiens, UniProt P01137); assay: Surface plasmon resonance (SPR)-based assay; details: Biacore T200, 25° C., TGF-β1 on CM5 chip, steady-state single site binding model
Chain of TGF-β1 (P01137 279-390 limits assumed): as above
Protocol: Experiments were performed at 25° C. using a Biacore T200 and the data were analyzed using Biacore T200 evaluation software 2.0 (GE Healthcare, Stockholm, Sweden). […] The steady-state values were calculated from the sensorgrams and plotted against the concentrations. The data were fit to a single site binding model to calculate the KD.

TGF-β1/TβRII = target: T2, TGF-β1/TβRII (Homo sapiens, UniProt P01137); assay: AFM single-molecule force spectroscopy of TGF-β1-TβRII binding on HeLa cells
T2 construct: expressed in transfected cells; host or cells: HeLa
T2 sequence (P01137 279-390 limits assumed): as above
Protocol: The present invention investigated the binding force and the binding probability between TGF-β1 and TβRII on live cells using AFM-based single-molecule force spectroscopy. TGF-β1-modified AFM tips (type: NP-10, Bruker, Santa Barbara, Calif., USA) were prepared as followed. The spring constants of the tips, calibrated by the thermal fluctuation method, were in the range of 0.025-0.045 N/m. The tips were first cleaned and hydroxized through the treatment with chloroform, HF acid, alkaline solution (NH4OH/H2O2/H2O) 1:1:5, v/v) and piranha solution (98% H2SO4/H2O2) 7:3, v/v), respectively, to generate Si-OH on the wafers. Then they were transferred to a solution of 1.0% (v/v) MPTMS in toluene, incubated for 2 h at room temperature, and rinsed thoroughly with toluene to be modified with —SH groups. […]
Hela cells were transfected with the TβRII-GFP plasmid for 24 h, and the force measurements were performed on a PicoSPM II system with a PicoScan 3000 controller and a large scanner (Agilent, Santa Clara, Calif., USA). The AFM scanner was mounted on an inverted fluorescence microscope (Olympus IX71, Japan). […] All of the force curves were measured with the contact mode at room temperature using a soft cantilever (0.06 N m-1). […] The force curves were recorded using PicoScan 5 software (Molecular Imaging, Tempe, Ariz., USA) and analyzed using a program in MATLAB (MathWorks Corp., Natick, Mass., USA.).

[3] = persons receiving the drug therapeutically, cited from earlier work

SMILES: Cc1ccccc1NC(=N)Nc1ccccc1C [1,3-Di(o-tolyl)guanidine]
effect on p-Smad3 induced by TGFβ1 [1]: attenuate

SMILES: Cl.N=C(NN)NN [1,3-Diaminoguanidine monohydrochloride]
effect on p-Smad3 induced by TGFβ1 [1]: no effect

SMILES: Cl.N=C(N)NC(=N)Nc1cccc(Cl)c1Cl [1-(2,3-Dichlorophenyl) biguanide hydrochloride]
effect on p-Smad3 induced by TGFβ1 [1]: no effect

SMILES: CCCCNC(=N)NC(=N)N [buformin hydrochloride, Buformin hydrochloride]
effect on p-Smad3 induced by TGFβ1 [1]: attenuate

IC50 [2]: 69.2 µM
Kd (TGF-β1): 15.9 µM
binding force of TGF-β1 with TβRII (TGF-β1/TβRII; 50 μM, control 49.5±1.3, P>0.05): 49.3±1.4 pN
binding probability of TGF-β1 and TβRII (TGF-β1/TβRII; metformin 50 μM, control 21.7±3.5%): 9.9±1.2%
SMILES: CN(C)C(=N)N=C(N)N [metformin, metformin hydrochloride]
percentage of TβRII dimers induced by TGF-β1 (TβRII-GFP on HeLa cells): inhibited the percentage of dimers induced by TGF-β1 in a dose-dependent manner
Blood or plasma concentrations [3]: 1 to 4 µg/mL
Blood or plasma concentrations ([3]; conversion of μg/mL): 6 to 24 µM

SMILES: Cl.N=C(N=C(N)N)N1CCOCC1 [moroxydinehydrochloride]
effect on p-Smad3 induced by TGFβ1 [1]: no effect
